Experimental data as given in patent US20210392889A1, “COMPOSITIONS COMPRISING PYRIDINE CARBOXYLATE HERBICIDES WITH PDS INHIBITOR HERBICIDES” (Corteva Agriscience LLC, priority 2018, published 2021).

Columns and labels:
[1] = tested on: Canada thistle (CIRAR, Cirsium arvense); experiment: Greenhouse postemergence herbicidal effect, visual injury after 20-22 d; format: in vivo; conditions: for visual injury: Table 1
Excerpt: (§1) Seeds of the desired test plant species were planted in a 90:10% v/v (volume/volume) mixture of PRO-MIX® BX (Premier Tech Horticulture, Quakertown, Pa., USA) and PROFILE® GREENS GRADE™ (Profile Products LLC, Buffalo Grove, Ill., USA) planting mixture, which typically has a pH of 5.2 to 6.2 and an organic matter content of at least 50 percent, in plastic pots with a surface area of 103.2 square centimeters (cm^2). In some aspects, to ensure good germination and healthy plants, a fungicide treatment and/or other chemical or physical treatment was applied. The plants were grown for 7-36 days (d) in a greenhouse with an approximate 14-hour (h) photoperiod which was maintained at about 23° C. during the day and 22° C. during the night. Nutrients and water were added on a regular basis and supplemental lighting was provided with overhead metal halide 1000-Watt lamps as necessary. The plants were employed for testing when they reached the second or third true leaf stage.
(§2) Emulsifiable concentrates of each of each pyridine carboxylate herbicide (Compound A or Compound B) were prepared at 100 grams acid equivalent per liter (g ae/L). The emulsifiable concentrates also included a safener, cloquintocet-mexyl, at 120 grams active ingredient per liter (g ai/L). An aliquot of each emulsifiable concentrate was placed in a 25 mL glass vial and diluted with an aqueous mixture of 1.25% (v/v) ACTIROB® B esterified rapeseed oil (Bayer Crop Science, Research Triangle Park, N.C., USA) or MSO® Concentrate with LECI-TECH® methylated soybean oil (Loveland Products, Loveland, Colo., USA) to obtain concentrated stock solutions at the highest application rate for each herbicide, based upon a 12 milliliter (mL) application volume at a rate of 187 liters per hectare (L/ha). The concentrated stock solutions were further diluted with an aqueous mixture of 1.25% v/v ACTIROB® B or MSO® Concentrate with LECI-TECH® to obtain stock solutions at reduced application rates for each herbicide. Spray solutions of the herbicide combinations (Compound A or Compound B plus PDS inhibitor herbicide) were prepared by adding weighed amounts or aliquots of the PDS inhibitor herbicide to the stock solutions of Compound A or Compound B to form 12-mL spray solutions in two- or three-way combinations.
(§3) The spray solutions were applied to the plant material with an overhead Mandel track sprayer equipped with 8002E nozzles calibrated to deliver 187 L/ha over an application area of 0.503 square meters (m^2) at a spray height of 18 inches ([…] centimeters (cm)) above the average plant canopy. Control plants were sprayed in the same manner with the solvent blank. All pyridine carboxylate herbicide (component a) application rates are given as “g ae/ha” and all PDS inhibitor herbicide (component b) application rates are given as “g ai/ha.”
(§4) The treated plants and control plants were placed in a greenhouse as described above and watered by sub-irrigation to prevent wash-off of the test compounds. After 20-22 d, the condition of the test plants as compared with that of the control plants was determined visually and scored on a scale of 0 to 100 percent where 0 corresponds to no injury and 100 corresponds to complete kill.

[2] = tested on: barnyardgrass (ECHCG, Echinochloa crus-galli); experiment: as above; format: in vivo; conditions: Table 4
Excerpt: as §1, §2, §3, §4

[3] = tested on: common lambsquarters (CHEAL, Chenopodium album L.); experiment: as above; format: in vivo; conditions: for visual injury: Table 1
Excerpt: as §1, §2, §3, §4

[4] = tested on: ivyleaf morningglory (IPOHE, Ipomoea hederacea); experiment: as above; format: in vivo
Excerpt: as §1, §2, §3, §4

[5] = tested on: pigweed (AMARE, Amaranthus retroflexus); experiment: as above; format: in vivo; conditions: for visual injury: Table 1
Excerpt: as §1, §2, §3, §4

[6] = tested on: wild chamomile (MATCH, Matricaria chamomilla); experiment: as above; format: in vivo; conditions: for visual injury: Table 1
Excerpt: as §1, §2, §3, §4

spring wheat (TRZAS) = experiment: Greenhouse postemergence phytotoxicity on crop, visual injury after 20-22 d; format: in vivo, Triticum aestivum; conditions: for visual injury: Table 1
Excerpt: as §1, §2, §3, §4

spring barley (HORVS) = experiment: as above; format: in vivo, Hordeum vulgare; conditions: for visual injury: Table 1
Excerpt: as §1, §2, §3, §4

N#CCOC(=O)c1nc(-c2ccc3cc[nH]c3c2F)c(F)c(N)c1Cl [Compound A, cyanomethyl 4-amino-3-chloro-5-fluoro-6-(7-fluoro-1H-indol-6-yl)pyridine-2-carboxylate]
73%: visual injury Obs ([2]; 7.5 g/ha) | visual injury ([5]; 10 g/ha)
33%: visual injury Obs ([6]; 10 g/ha, Table 3)
93%: visual injury ([3]; 10 g/ha) | visual injury Obs ([3]; 10 g/ha, Table 4)
88%: visual injury ([3]; 7.5 g/ha)
23%: visual injury Obs ([1]; 7.5 g/ha, Table 4) | visual injury Obs ([1]; 10 g/ha, Table 3)
10%: visual injury Obs ([1]; 7.5 g/ha, Table 3) | visual injury Obs ([6]; 15 g/ha, Table 8)
60%: visual injury Obs ([3]; 7.5 g/ha, Table 3)
25%: visual injury Obs ([1]; 7.5 g/ha, Table 5) | visual injury Obs ([1]; 7.5 g/ha, Table 6)
15%: visual injury Obs ([6]; 10 g/ha, Table 2) | visual injury Obs ([6]; 10 g/ha, Table 8)
85%: visual injury Obs ([5]; 10 g/ha, Table 5) | visual injury Obs ([5]; 10 g/ha, Table 6)
80%: visual injury Obs ([5]; 7.5 g/ha, Table 5) | visual injury Obs ([5]; 7.5 g/ha, Table 6)
20%: visual injury Obs ([1]; 10 g/ha, Table 4) | visual injury Obs ([1]; 10 g/ha, Table 5) | visual injury Obs ([1]; 10 g/ha, Table 6) | visual injury ([6]; 7.5 g/ha)
97%: visual injury Obs ([3]; 7.5 g/ha, Table 4)
0%: visual injury Obs ([4]; 10 g/ha, Table 5) | visual injury Obs ([4]; 10 g/ha, Table 6) | visual injury Obs ([6]; 7.5 g/ha, Table 3) | visual injury (spring wheat (TRZAS); 7.5 g/ha) | visual injury Obs (spring wheat (TRZAS); 7.5 g/ha, Table 2) | visual injury Obs (spring wheat (TRZAS); 7.5 g/ha, Table 3) | visual injury Obs (spring wheat (TRZAS); 7.5 g/ha, Table 5) | visual injury Obs (spring wheat (TRZAS); 7.5 g/ha, Table 6) | visual injury Obs (spring wheat (TRZAS); 7.5 g/ha, Table 7) | visual injury (spring wheat (TRZAS); 10 g/ha) | visual injury Obs (spring wheat (TRZAS); 10 g/ha, Table 2) | visual injury Obs (spring wheat (TRZAS); 10 g/ha, Table 3) | visual injury Obs (spring wheat (TRZAS); 10 g/ha, Table 5) | visual injury Obs (spring wheat (TRZAS); 10 g/ha, Table 6) | visual injury Obs (spring wheat (TRZAS); 10 g/ha, Table 7) | visual injury Obs (spring wheat (TRZAS); 15 g/ha, Table 8) | visual injury (spring barley (HORVS); 7.5 g/ha) | visual injury Obs (spring barley (HORVS); 7.5 g/ha, Table 3) | visual injury Obs (spring barley (HORVS); 7.5 g/ha, Table 7) | visual injury (spring barley (HORVS); 10 g/ha) | visual injury Obs (spring barley (HORVS); 10 g/ha, Table 2) | visual injury Obs (spring barley (HORVS); 10 g/ha, Table 3) | visual injury Obs (spring barley (HORVS); 10 g/ha, Table 7)
30%: visual injury ([1]; 7.5 g/ha) | visual injury Obs ([1]; 10 g/ha, Table 7) | visual injury ([6]; 10 g/ha) | visual injury Obs ([6]; 10 g/ha, Table 7)
98%: visual injury Obs ([5]; 10 g/ha, Table 3)
13%: visual injury Obs ([6]; 7.5 g/ha, Table 2)
8%: visual injury Obs ([4]; 10 g/ha, Table 4) | visual injury Obs ([6]; 7.5 g/ha, Table 8) | visual injury Obs (spring barley (HORVS); 7.5 g/ha, Table 2) | visual injury Obs (spring barley (HORVS); 7.5 g/ha, Table 8)
78%: visual injury Obs ([2]; 10 g/ha) | visual injury Obs ([3]; 10 g/ha, Table 7) | visual injury Obs ([3]; 10 g/ha, Table 8) | visual injury ([5]; 7.5 g/ha) | visual injury Obs ([5]; 7.5 g/ha, Table 8) | visual injury Obs ([5]; 10 g/ha, Table 8)
83%: visual injury Obs ([3]; 10 g/ha, Table 2) | visual injury Obs ([3]; 15 g/ha, Table 8) | visual injury Obs ([5]; 15 g/ha, Table 8)
5%: visual injury Obs ([4]; 7.5 g/ha, Table 5) | visual injury Obs ([4]; 7.5 g/ha, Table 6) | visual injury Obs (spring barley (HORVS); 10 g/ha, Table 8)
18%: visual injury Obs ([1]; 7.5 g/ha, Table 7) | visual injury Obs ([6]; 7.5 g/ha, Table 7)
40%: visual injury ([1]; 10 g/ha)
3%: visual injury Obs ([4]; 7.5 g/ha, Table 4) | visual injury Obs (spring wheat (TRZAS); 7.5 g/ha, Table 8) | visual injury Obs (spring wheat (TRZAS); 10 g/ha, Table 8) | visual injury Obs (spring barley (HORVS); 15 g/ha, Table 8)
70%: visual injury Obs ([3]; 7.5 g/ha, Table 2) | visual injury Obs ([3]; 7.5 g/ha, Table 7) | visual injury Obs ([3]; 7.5 g/ha, Table 8) | visual injury Obs ([5]; 7.5 g/ha, Table 3) | visual injury Obs ([5]; 7.5 g/ha, Table 7)
90%: visual injury Obs ([3]; 10 g/ha, Table 3) | visual injury Obs ([5]; 10 g/ha, Table 7)
